Series [1] concerns the target T1, HIV-1 IN (3′-P) (Human immunodeficiency virus type 1 group M subtype B, UniProt P04585). Nature of the series: HIV-1 IN gel-based assay, 3′-processing. The format is biochemical.
In series [2] the target is T2, HIV-1 IN (ST) (Human immunodeficiency virus type 1 group M subtype B, UniProt P04585). Nature of the series: HIV-1 IN gel-based assay, strand transfer. The format is biochemical.
Another series has as its target HIV-1 RT RNase H (Human immunodeficiency virus type 1 group M subtype B, UniProt P04585). Description: HIV-1 RT RNase H inhibition. In kind it is biochemical.
In the next series the test system is HIV-1(IIIB). The settings on record: Table 2.
The target in series [3] is T1, HIV-1 IN (3′-P). As to conditions: read-out: 3′-P IC50, previously reported compounds; cited from earlier work.
For series [4], the target named is T2, HIV-1 IN (ST). As to conditions: read-out: ST IC50, previously reported compound; cited from earlier work.

Molecules are shown by their SMILES. “And” between values parts separate entries of the source, which are not always exact repeats. Equal entries are not always repeated. Where two headings read alike, the source gives them in different places.

For `CCOC(=O)/C(O)=C/C(=O)c1cn(Cc2ccc(OC)cc2)c2ccccc2c1=O` [10h, 4-[1-(4-Methoxyphenyl)methyl-4(1H)-quinolinon-3-yl]-2-hydroxy-4-oxo-2-butenoic Acid Ethyl Ester], the half-maximal inhibitory concentration (IC50) on HIV-1 IN (3′-P) [1] and against HIV-1 IN (ST) [2] was over 37 µM each time.
For `O=C(O)/C(O)=C/C(=O)c1cn(CCCCc2ccccc2)c2ccccc2c1=O` [11x, 2-Hydroxy-4-oxo-4-(4-oxo-1-(4-phenylbutyl)-1,4-dihydroquinolin-3-yl)but-2-enoic Acid], the half-maximal inhibitory concentration (IC50) (usually the point on the concentration scale where inhibition reaches its midpoint) against HIV-1 IN (3′-P) [1] is over 333 µM; against HIV-1 IN (ST) [2] it was under 0.45 µM.
`CCOC(=O)/C(O)=C/C(=O)c1cn(Cc2ccc(C)cc2C)c2ccccc2c1=O` [10q, 4-[1-(2,4-Dimethylphenyl)methyl-4(1H)-quinolinon-3-yl]-2-hydroxy-4-oxo-2-butenoic Acid Ethyl Ester]: the IC50 at HIV-1 IN (ST) [2] was over 111 µM; against HIV-1 RT RNase H (RNase H IC50, Table 1), over 50 µM.
Turning to `O=C(O)/C(O)=C/C(=O)c1cn(Cc2ccc3ccccc3c2)c2ccccc2c1=O` [11y, 2-Hydroxy-4-(1-(naphthalen-2-ylmethyl)-4-oxo-1,4-dihydroquinolin-3-yl)-4-oxobut-2-enoic Acid], the half-maximal inhibitory concentration (IC50) on HIV-1 IN (ST) [2] is under 0.45 µM. The “SI = CC50/EC50” value with HIV-1(IIIB) is reported as over 10.4.
Turning to `CCOC(=O)/C(O)=C/C(=O)c1cn(Cc2ccc([N+](=O)[O-])cc2)c2ccccc2c1=O` [10i, 4-[1-(4-Nitrophenyl)methyl-4(1H)-quinolinon-3-yl]-2-hydroxy-4-oxo-2-butenoic Acid Ethyl Ester], the half-maximal inhibitory concentration (IC50) on HIV-1 IN (3′-P) [1] and at HIV-1 IN (ST) [2] was over 37 µM throughout.
Consider `CCOC(=O)/C(O)=C/C(=O)c1cn(Cc2ccc(Cl)cc2Cl)c2ccccc2c1=O` [10o, 4-[1-(2,4-Dichlorophenyl)methyl-4(1H)-quinolinon-3-yl]-2-hydroxy-4-oxo-2-butenoic Acid Ethyl Ester], for which the half-maximal inhibitory concentration (IC50) at HIV-1 IN (ST) [2] is over 111 µM; against HIV-1 RT RNase H (RNase H IC50, Table 1) it was over 50 µM.
For `O=C(O)/C(O)=C/C(=O)c1cn(Cc2ccc(F)cc2)c2cc(Cl)c(Cl)cc2c1=O` [compound 8], the IC50 is 42 µM on HIV-1 RT RNase H (RNase H IC50, text); over 50 µM on HIV-1 IN (3′-P) [3]; 0.033 µM and 0.04 µM on HIV-1 IN (ST) [4].
On to `CCOC(=O)/C(O)=C/C(=O)c1cn(Cc2ccc(Cl)cc2)c2ccccc2c1=O` [10f, 4-[1-(4-Chlorophenyl)methyl-4(1H)-quinolinon-3-yl]-2-hydroxy-4-oxo-2-butenoic Acid Ethyl Ester], for which the concentration for half-maximal inhibition (IC50) at HIV-1 IN (3′-P) [1] and on HIV-1 IN (ST) [2] was over 37 µM each time.
With `O=C(O)/C(O)=C/C(=O)c1cn(Cc2ccc(O)cc2)c2ccccc2c1=O` [11g, 4-[1-(4-Hydroxyphenyl)methyl-4(1H)-quinolinon-3-yl]-2-hydroxy-4-oxo-2-butenoic Acid], the concentration for half-maximal inhibition (IC50) on HIV-1 IN (3′-P) [1] was over 37 µM; against HIV-1 RT RNase H (RNase H IC50, text) it was about 10 µM.
